The record followed here is ChEMBL document CHEMBL5291721, “A preclinical secondary pharmacology resource illuminates target-adverse drug reaction associations of marketed drugs” (Nat Commun, 2023).

Assay [1] concerns the target Voltage-dependent L-type calcium channel subunit alpha-1C (Rattus norvegicus, UniProt P22002). The assay is classed as functional.
Assay [2] has as its target T1, Corticotropin-releasing factor receptor 2 (Homo sapiens, UniProt Q13324).
T1 sequence (Q13324 whole entry): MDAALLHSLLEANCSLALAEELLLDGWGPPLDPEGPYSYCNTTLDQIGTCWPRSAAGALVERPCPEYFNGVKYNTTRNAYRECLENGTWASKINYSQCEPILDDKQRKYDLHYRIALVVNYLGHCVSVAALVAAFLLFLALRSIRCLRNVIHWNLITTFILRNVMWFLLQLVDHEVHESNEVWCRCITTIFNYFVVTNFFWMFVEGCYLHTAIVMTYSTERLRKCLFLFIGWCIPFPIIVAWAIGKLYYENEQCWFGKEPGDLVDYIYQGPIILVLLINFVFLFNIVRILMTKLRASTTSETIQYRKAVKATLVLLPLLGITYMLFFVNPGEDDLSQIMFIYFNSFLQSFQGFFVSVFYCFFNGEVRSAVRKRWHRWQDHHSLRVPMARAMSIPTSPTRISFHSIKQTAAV

Assay [3] addresses Glucagon receptor (Homo sapiens, UniProt P47871).
In assay [4] the target is Histamine H2 receptor (Homo sapiens, UniProt P25021).
Assay [5] addresses T2, Muscarinic acetylcholine receptor M2 (Homo sapiens, UniProt P08172).
T2 sequence (P08172 whole entry): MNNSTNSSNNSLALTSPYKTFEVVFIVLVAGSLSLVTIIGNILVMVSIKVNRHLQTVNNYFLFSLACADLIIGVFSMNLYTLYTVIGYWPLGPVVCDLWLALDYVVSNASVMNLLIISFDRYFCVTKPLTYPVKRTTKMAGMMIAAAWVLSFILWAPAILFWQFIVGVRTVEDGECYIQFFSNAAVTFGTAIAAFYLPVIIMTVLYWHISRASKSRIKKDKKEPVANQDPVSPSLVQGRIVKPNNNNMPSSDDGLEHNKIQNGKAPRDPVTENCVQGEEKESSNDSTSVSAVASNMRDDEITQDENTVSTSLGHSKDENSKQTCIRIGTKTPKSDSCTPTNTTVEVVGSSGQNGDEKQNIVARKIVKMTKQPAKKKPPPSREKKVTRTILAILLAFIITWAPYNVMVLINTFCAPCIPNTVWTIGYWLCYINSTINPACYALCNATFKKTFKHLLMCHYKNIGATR

Assay [6] concerns the target T3, Gamma-aminobutyric acid receptor subunit alpha-1/alpha-2/beta-2/gamma-2 (Homo sapiens, UniProt P14867+P18507+P47869+P47870). The format is protein-complex assay.
Assay [7] concerns the target T4, Glucocorticoid receptor (Homo sapiens, UniProt P04150).
T4 sequence (P04150 whole entry): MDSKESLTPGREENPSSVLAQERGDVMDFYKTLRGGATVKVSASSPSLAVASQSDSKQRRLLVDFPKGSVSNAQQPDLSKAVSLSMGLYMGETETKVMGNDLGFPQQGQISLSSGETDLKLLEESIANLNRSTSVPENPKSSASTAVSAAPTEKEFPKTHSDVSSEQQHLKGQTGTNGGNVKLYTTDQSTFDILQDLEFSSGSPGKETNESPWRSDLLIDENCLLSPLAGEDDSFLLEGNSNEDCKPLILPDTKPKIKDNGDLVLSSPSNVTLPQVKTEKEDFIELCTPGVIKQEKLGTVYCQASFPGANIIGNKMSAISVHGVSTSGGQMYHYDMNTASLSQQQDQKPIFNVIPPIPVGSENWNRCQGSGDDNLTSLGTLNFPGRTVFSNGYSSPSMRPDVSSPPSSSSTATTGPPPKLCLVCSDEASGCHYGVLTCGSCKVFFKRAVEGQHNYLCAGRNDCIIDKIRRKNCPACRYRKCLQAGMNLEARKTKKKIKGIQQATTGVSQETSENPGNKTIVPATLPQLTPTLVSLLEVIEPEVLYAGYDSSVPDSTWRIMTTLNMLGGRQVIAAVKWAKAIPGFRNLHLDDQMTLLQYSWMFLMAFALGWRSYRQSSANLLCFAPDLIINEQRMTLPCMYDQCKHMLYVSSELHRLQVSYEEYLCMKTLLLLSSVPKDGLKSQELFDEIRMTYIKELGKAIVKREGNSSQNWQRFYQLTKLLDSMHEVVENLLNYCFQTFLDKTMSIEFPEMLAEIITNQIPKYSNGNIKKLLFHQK

The target in assay [8] is T5, Alpha-2B adrenergic receptor (Homo sapiens, UniProt P18089).
T5 sequence (P18089 whole entry): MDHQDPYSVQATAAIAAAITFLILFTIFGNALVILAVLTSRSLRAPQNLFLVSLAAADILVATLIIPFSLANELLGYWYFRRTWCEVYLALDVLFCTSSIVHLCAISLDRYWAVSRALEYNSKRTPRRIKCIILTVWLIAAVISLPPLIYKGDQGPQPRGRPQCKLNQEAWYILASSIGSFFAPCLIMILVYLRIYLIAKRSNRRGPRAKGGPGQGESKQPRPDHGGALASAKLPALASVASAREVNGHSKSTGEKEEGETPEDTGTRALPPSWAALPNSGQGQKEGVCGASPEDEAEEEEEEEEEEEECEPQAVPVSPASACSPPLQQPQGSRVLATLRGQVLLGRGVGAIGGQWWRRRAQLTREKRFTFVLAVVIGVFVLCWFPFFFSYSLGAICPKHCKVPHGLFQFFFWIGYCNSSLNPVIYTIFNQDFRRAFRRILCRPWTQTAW

Assay [9] has as its target T3, Gamma-aminobutyric acid receptor subunit alpha-1/alpha-2/beta-2/gamma-2. The assay is classed as functional, cell-based.
The target in assay [10] is T6, Adenosine receptor A1 (Homo sapiens, UniProt P30542).
T6 sequence (P30542 whole entry): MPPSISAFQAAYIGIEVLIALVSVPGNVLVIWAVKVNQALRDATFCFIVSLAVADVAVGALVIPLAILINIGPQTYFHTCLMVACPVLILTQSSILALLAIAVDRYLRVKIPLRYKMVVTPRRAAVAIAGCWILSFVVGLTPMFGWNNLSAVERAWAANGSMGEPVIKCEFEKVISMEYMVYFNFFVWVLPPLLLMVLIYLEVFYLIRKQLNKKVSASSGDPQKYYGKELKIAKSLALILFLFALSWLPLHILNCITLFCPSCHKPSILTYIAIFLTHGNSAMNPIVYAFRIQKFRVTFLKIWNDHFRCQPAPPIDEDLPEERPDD

One may read the AC50 as the midpoint of the concentration-response curve, whichever way the signal moves.
Note: assay procedure not described here.

Sequence of Glucagon receptor (P47871 whole entry): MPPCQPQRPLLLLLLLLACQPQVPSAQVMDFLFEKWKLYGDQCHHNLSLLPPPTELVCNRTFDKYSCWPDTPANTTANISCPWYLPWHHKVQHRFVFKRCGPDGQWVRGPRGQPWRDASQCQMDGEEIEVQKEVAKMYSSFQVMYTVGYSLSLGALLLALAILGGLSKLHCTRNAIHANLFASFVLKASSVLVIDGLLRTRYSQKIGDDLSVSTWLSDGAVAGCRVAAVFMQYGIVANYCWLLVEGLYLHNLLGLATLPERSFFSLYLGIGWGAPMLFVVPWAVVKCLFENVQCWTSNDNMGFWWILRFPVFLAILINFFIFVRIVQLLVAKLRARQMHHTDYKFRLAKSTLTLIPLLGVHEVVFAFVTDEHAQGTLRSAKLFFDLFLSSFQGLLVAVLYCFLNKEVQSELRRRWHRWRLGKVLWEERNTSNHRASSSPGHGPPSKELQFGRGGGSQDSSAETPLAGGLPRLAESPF
T3 sequence (P14867 whole entry): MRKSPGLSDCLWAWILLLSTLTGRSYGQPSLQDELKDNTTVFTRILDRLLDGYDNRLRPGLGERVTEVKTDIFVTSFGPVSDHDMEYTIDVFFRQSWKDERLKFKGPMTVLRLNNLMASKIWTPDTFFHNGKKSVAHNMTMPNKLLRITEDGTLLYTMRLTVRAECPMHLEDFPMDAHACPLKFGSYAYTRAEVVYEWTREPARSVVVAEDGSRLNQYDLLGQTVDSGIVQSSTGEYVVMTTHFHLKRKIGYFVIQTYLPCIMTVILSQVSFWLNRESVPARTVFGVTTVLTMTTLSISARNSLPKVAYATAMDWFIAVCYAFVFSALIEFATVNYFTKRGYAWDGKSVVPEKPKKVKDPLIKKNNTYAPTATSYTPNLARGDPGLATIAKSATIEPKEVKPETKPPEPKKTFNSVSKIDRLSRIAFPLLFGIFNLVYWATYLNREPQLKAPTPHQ
T3 sequence (P47870 whole entry): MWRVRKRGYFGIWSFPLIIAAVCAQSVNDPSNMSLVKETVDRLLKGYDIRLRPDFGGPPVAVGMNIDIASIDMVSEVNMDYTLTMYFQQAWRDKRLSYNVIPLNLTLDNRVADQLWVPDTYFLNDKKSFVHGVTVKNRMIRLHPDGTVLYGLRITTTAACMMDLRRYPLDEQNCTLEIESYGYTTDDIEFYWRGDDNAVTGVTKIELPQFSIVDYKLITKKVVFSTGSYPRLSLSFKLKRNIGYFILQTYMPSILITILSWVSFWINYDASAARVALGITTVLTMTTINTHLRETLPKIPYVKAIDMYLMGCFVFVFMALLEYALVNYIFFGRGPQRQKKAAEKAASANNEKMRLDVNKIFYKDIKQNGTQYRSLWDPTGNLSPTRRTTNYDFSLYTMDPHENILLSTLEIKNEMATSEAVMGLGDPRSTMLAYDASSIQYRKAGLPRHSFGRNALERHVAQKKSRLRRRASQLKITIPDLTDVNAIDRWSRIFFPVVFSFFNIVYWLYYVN
T3 sequence (P18507 whole entry): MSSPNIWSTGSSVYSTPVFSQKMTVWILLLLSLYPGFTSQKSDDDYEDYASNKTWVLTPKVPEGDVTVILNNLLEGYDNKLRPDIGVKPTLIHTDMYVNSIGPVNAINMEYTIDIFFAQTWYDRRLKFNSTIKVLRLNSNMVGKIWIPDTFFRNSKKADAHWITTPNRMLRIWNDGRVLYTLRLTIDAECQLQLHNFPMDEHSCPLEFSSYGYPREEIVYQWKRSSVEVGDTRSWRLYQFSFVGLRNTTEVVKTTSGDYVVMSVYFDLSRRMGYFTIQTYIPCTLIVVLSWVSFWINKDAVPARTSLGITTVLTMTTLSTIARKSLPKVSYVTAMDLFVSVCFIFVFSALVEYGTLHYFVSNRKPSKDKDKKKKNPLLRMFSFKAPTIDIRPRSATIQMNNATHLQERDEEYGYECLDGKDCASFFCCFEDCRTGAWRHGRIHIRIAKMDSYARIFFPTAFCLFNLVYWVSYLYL
T3 sequence (P47869 whole entry): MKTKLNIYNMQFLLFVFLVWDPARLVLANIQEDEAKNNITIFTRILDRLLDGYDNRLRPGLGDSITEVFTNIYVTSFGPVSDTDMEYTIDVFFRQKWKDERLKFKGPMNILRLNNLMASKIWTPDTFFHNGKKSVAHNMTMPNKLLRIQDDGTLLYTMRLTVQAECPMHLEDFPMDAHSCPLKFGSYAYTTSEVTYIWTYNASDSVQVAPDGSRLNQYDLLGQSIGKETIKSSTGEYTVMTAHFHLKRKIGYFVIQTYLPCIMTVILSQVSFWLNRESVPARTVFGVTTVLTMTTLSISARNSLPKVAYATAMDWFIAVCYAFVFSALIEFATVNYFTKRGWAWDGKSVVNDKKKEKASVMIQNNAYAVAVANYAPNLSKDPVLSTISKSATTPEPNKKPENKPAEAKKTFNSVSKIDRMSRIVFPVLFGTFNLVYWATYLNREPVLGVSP
Sequence of Histamine H2 receptor (P25021 whole entry): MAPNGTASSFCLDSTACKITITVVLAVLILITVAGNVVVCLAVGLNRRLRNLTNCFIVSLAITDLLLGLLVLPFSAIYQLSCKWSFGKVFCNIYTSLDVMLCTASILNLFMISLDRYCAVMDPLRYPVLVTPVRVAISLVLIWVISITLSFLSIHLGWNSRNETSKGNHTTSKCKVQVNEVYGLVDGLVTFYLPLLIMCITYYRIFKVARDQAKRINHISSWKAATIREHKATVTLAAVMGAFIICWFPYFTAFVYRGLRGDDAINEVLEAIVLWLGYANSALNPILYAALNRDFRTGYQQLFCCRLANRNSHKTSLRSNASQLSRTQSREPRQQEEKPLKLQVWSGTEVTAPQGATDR
Sequence of Voltage-dependent L-type calcium channel subunit alpha-1C (P22002 whole entry): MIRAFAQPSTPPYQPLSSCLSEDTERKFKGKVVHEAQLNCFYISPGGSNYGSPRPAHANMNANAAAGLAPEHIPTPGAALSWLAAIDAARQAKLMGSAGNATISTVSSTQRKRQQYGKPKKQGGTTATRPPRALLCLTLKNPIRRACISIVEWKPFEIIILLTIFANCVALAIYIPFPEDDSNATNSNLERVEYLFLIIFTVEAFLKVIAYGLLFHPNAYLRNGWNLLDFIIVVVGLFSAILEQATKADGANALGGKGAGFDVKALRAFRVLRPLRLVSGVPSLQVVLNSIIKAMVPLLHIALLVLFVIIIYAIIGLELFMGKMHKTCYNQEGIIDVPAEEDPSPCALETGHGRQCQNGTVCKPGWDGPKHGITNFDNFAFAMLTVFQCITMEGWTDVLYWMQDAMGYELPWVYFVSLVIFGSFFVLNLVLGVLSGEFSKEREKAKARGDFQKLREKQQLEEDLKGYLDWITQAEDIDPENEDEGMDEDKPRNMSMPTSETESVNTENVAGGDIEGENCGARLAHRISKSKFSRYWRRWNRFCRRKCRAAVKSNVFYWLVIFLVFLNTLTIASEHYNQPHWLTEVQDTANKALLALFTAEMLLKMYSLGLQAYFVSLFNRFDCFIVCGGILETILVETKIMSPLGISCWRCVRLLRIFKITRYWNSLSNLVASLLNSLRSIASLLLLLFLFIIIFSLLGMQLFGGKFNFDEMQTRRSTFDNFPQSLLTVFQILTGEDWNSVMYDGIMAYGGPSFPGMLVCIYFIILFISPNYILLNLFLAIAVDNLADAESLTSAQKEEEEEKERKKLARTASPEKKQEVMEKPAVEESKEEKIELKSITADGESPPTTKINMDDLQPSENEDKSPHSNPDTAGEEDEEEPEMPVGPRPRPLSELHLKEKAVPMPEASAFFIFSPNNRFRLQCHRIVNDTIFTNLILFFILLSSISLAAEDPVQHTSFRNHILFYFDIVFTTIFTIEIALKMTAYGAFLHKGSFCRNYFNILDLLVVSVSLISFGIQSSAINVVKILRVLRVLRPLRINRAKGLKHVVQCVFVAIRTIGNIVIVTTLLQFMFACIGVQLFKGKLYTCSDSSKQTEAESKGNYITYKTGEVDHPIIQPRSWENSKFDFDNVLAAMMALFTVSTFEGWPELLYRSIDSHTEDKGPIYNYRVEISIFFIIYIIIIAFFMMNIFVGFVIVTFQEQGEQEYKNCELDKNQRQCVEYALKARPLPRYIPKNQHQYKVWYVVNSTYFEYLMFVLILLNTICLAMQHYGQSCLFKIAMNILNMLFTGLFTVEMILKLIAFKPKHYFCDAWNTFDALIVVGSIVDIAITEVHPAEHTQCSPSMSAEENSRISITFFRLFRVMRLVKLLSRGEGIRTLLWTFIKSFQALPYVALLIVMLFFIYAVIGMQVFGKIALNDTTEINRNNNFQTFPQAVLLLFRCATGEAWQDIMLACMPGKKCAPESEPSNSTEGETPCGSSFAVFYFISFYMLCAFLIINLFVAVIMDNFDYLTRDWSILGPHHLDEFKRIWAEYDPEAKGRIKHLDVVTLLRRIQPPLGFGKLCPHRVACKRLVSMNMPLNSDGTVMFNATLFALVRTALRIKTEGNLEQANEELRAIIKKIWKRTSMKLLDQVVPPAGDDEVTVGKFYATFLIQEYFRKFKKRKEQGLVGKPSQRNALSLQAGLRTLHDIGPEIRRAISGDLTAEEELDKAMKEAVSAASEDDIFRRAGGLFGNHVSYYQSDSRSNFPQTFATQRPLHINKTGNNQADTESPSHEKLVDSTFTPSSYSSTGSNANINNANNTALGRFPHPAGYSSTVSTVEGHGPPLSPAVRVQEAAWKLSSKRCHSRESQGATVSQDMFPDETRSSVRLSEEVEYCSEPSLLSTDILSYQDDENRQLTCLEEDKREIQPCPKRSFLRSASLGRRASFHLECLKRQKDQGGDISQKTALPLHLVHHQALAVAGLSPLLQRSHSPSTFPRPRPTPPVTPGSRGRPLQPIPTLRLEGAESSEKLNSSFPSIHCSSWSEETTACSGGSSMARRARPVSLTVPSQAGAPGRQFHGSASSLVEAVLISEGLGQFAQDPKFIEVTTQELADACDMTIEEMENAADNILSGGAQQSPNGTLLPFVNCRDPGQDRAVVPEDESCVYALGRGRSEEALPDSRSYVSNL

With `Cc1ccc(C)c(OCCCC(C)(C)C(=O)O)c1` [GEMFIBROZIL], the concentration at half-maximal activity (AC50) in assay [1] is greater than 10 µM; in assay [2], greater than 30 µM; in assay [3], greater than 30 µM; in assay [4] it was greater than 10 µM; in assay [5] it was greater than 10 µM.
For the compound `O=C(O)Cc1ccccc1Nc1c(Cl)cccc1Cl` [DICLOFENAC], the AC50 in assay [1] is greater than 10 µM; in [2], greater than 30 µM; in assay [6], greater than 3 µM; in [3] it was greater than 30 µM; in assay [4] it was greater than 10 µM; in assay [5], greater than 10 µM.
With `CC[C@H](C)C(=O)O[C@H]1C[C@@H](C)C=C2C=C[C@H](C)[C@H](CC[C@@H]3C[C@@H](O)CC(=O)O3)[C@H]21` [LOVASTATIN], the AC50 was greater than 10 µM in assay [1]; greater than 30 µM in assay [2]; greater than 30 µM in assay [3]; greater than 10 µM in assay [4]; greater than 30 µM in [7]; greater than 10 µM in [5].
As for `CC(C)[C@H](N)C(=O)OCCOCn1cnc2c(=O)[nH]c(N)nc21` [VALACYCLOVIR], the AC50 in assay [1] was greater than 10 µM; in [2] it was greater than 30 µM; in assay [3], greater than 30 µM; in assay [4] it was greater than 10 µM; in assay [7], greater than 30 µM; in assay [5], greater than 10 µM.
On to `CCCc1nc2c(C)cc(-c3nc4ccccc4n3C)cc2n1Cc1ccc(-c2ccccc2C(=O)O)cc1`, for which the half-maximal activity concentration (AC50) in assay [8] is greater than 30 µM; in assay [1] it was greater than 30 µM; in assay [2], greater than 30 µM; in assay [9] it was greater than 30 µM; in assay [3], greater than 30 µM; in assay [4], greater than 10 µM. Moreover, the AC50 in assay [7] was greater than 30 µM; in [5], greater than 10 µM.
For `Cc1nc(Nc2ncc(C(=O)Nc3c(C)cccc3Cl)s2)cc(N2CCN(CCO)CC2)n1` [DASATINIB], the concentration at half-maximal activity (AC50) in [8] is greater than 30 µM; in [1], greater than 10 µM; in assay [3] it was greater than 10 µM; in [4] it was greater than 10 µM; in assay [5] it was greater than 10 µM.
In the case of `CN(CCOc1ccc(CC2SC(=O)NC2=O)cc1)c1ccccn1` (centres undefined) [ROSIGLITAZONE], the half-maximal activity concentration (AC50) in assay [1] was greater than 30 µM; in assay [2], greater than 30 µM; in [3], greater than 30 µM; in [4], greater than 10 µM; in assay [5], greater than 10 µM.
In the case of `C[N+](C)(CCCCCC[N+](C)(C)C1c2ccccc2-c2ccccc21)C1c2ccccc2-c2ccccc21` [HEXAFLUORENIUM], the AC50 in [10] was greater than 30 µM.
As to `CCOc1nc2cccc(C(=O)O)c2n1Cc1ccc(-c2ccccc2-c2nnn[nH]2)cc1`, the half-maximal activity concentration (AC50) in assay [1] is greater than 10 µM; in [2], greater than 30 µM; in assay [9], greater than 30 µM; in assay [3] it was greater than 30 µM; in [4], greater than 10 µM; in [7], greater than 30 µM. The compound also returned a half-maximal activity concentration (AC50) in [5] greater than 10 µM.
Consider `O=C(O)Cc1ccccc1Oc1ccc(Cl)cc1Cl` [FENCLOFENAC], for which the AC50 in assay [8] is greater than 10 µM; in assay [1], greater than 10 µM; in assay [2] it was greater than 30 µM; in assay [3] it was greater than 30 µM; in [4], greater than 10 µM; in [7], greater than 30 µM. Moreover, in assay [5], the AC50 is greater than 10 µM.
In the case of `CC[C@@H](CO)NC(=O)[C@@H]1C=C2c3cccc4c3c(cn4C)C[C@H]2N(C)C1` [METHYSERGIDE], the AC50 in assay [1] was greater than 10 µM; in assay [2], greater than 30 µM; in assay [3], greater than 30 µM; in assay [4], 2.44 µM; in assay [5], greater than 10 µM.
`CC[C@H]1OC(=O)[C@H](C)[C@@H](O[C@H]2C[C@@](C)(OC)[C@@H](O)[C@H](C)O2)[C@H](C)[C@@H](O[C@@H]2O[C@H](C)C[C@H](N(C)C)[C@H]2O)[C@](C)(O)C[C@@H](C)[C@@H]2N[C@@H](COCCOC)O[C@H]([C@H]2C)[C@]1(C)O` [DIRITHROMYCIN]: in [10], the concentration at half-maximal activity (AC50) was greater than 30 µM.
Still for that read-out and setting: the value for `C#C[C@]1(O)C=C[C@H]2[C@@H]3CCC4=CC(=O)CC[C@@H]4[C@H]3CC[C@@]21CC` [GESTODENE] was greater than 30 µM; that for `CN[C@@H]1[C@H](O[C@H]2[C@H](O[C@H]3[C@H](O)[C@@H](O)[C@H](NC(=N)N)[C@@H](O)[C@@H]3NC(=N)N)O[C@@H](C)[C@]2(O)CO)O[C@@H](CO)[C@H](O)[C@H]1O` [DIHYDROSTREPTOMYCIN] was greater than 30 µM.
